Our source for the IC50 values is patent US8828997B2, “2,3-dihydro-1H-imidazo(1,2-a)pyrimidin-5-one derivatives, preparation thereof, and pharmaceutical use thereof” (Sanofi, priority 2009, dated 2014).

Experiment [1] concerns AKT protein phosphorylated on serine 473 (P-AKT-S473) in PC3 human prostate carcinoma cells. As to the kind of experiment: pAKT expression in PC3 human prostate carcinoma cells measured by MSD Multi-spot Biomarker detection (test B). The class given is cell-based. The following applies: MSD sandwich immunoassay, 1 to 2 h incubation, absolute IC50. As to the method:
The inhibitory activity of the molecules on AKT phosphorylation is measured either by western blotting using the technique described below, or by the MSD Multi-spot Biomarker detection technique from Meso Scale Discovery also described below.
Study of pAKT Expression in PC3 Human Prostate Carcinoma Cells Measured by the MSD Multi-Spot Biomarker Detection Technique from Meso Scale Discovery (Test B):
This test is based on measuring the expression of the AKT protein phosphorylated on serine 473 (P-AKT-S473), in the PC3 human prostate carcinoma line, by means of the technique based on a sandwich immunoassay using the MSD Multi-spot Biomarker Detection kit from Meso Scale Discovery: phospho-Akt (Ser473) whole cell lysate kit (#K151CAD) or phospho-Akt (Ser473)/Total Akt whole cell lysate kit (#K151OOD). The primary antibody specific for P-AKT-S473 (Kit #K151CAD) is coated onto an electrode in each well of the 96-well plates of the MSD kit: after the addition of a protein lysate to each well, the signal is visualised by adding a secondary detection antibody labelled with an electrochemoluminescent compound. The procedure followed is that described in the kit.
On day 1, the PC3 cells are seeded into 96-well plates (TPP, #92096) at the concentration of 35 000 cells/well in 200 μl of DMEM medium (DMEM Gibco #11960-044) containing 10% of foetal calf serum (FCS Gibco, #10500-056) and 1% glutamine (L-Glu Gibco #25030-024), and incubated at 37° C., 5% CO2, overnight.
On day 2, the cells are incubated in the presence or absence of the test products for 1 to 2 h at 37° C. in the presence of 5% of CO2. The molecules, diluted in dimethyl sulphoxide (DMSO Sigma #D2650), are added from a 20-times concentrated stock solution, the final percentage of DMSO being 0.1%. The molecules are tested either at a single concentration of less than or equal to 10 μM, or at increasing concentrations in a range that can extend from less than 1 nM to 10 μM.
After this incubation, the cells are lysed for the preparation of the proteins. For this, after the culture medium has been drawn off, 50 μl of complete Tris Lysis Buffer of the MSD kit containing the protease and phosphatase inhibitor solutions are added to the wells and the cells are lysed for 1 h at 4° C. with shaking. At this stage, the plates containing the lysates can be stored at −20° C. or at −80° C.
The wells of the 96-well plates of the MSD kit are saturated for 1 h at ambient temperature with the blocking solution of the MSD kit. Four washes are carried out with 150 μl of Tris Wash Buffer of the MSD kit. The lysates previously prepared are transferred into the 96-well multi-spot plates of the MSD kit and incubated for 1 h at ambient temperature, with shaking. Four washes are carried out with 150 μl of Tris Wash Buffer of the MSD kit. 25 μl of the MSD sulfo-tag detection antibody solution are added to the wells and incubated for 1 h at ambient temperature, with shaking. Four washes are carried out with 150 μl of Tris Wash Buffer of the MSD kit. 150 μl of Read Buffer of the MSD kit are added to the wells and the plates are read immediately on the S12400 instrument from Meso Scale Discovery.
The instrument measures a signal for each well. Wells without cells and containing the lysis buffer serve to determine the background noise that will be subtracted from all the measurements (min). The wells containing cells in the absence of product and in the presence of 0.1% DMSO are considered to be the 100% signal (max). The percentage inhibition is calculated for each concentration of test product according to the following formula: (1-((test−min)/(max−min)))×100.
The activity of the product is translated to IC50, obtained from a dose-response curve of the various concentrations tested and representing the dose giving 50% specific inhibition (absolute IC50). 2 independent experiments make it possible to calculate the mean of the IC50 values.

Experiment [2] deals with translocation of the LC3 protein in Hela GFP-LC3 cells. The experiment is described as follows: Translocation of the LC3 protein in Hela human cells measured by image analysis cytometry (test C, autophagy). The following applies: EBSS + 10 μM hydroxychloroquine, cells with LC3 granulations, absolute IC50. In kind it is cell-based. As to the method:
Inhibitory activity of the molecules on autophagy is measured by means of the translocation of the LC3 protein from the cytoplasm to the autophagosomes. For this, Hela cells were transfected with a vector encoding the chimeric protein GFP-LC3. A Hela clone stably expressing the GFP-LC3 protein was selected.
Study of the Translocation of the LC3 Protein in Hela Human Cells, Measured by Image Analysis Cytometry (Test C):
On day 1, the Hela GFP-LC3 cells are seeded into 96-well plates coated with poly-D-lysine (Greiner, #655946) at the concentration of 15000 cells/well in 200 μl of DMEM medium (DMEM Gibco #11960-044) containing 10% of foetal calf serum (FCS Gibco, #10500-056) and 1% glutamine (L-Glu Gibco #25030-024), and incubated at 37° C., 5% CO2, overnight.
On day 2, the cells are washed twice with EBSS (Sigma #E3024). The cells are then incubated in EBSS, 10 μM hydroxychloroquine and test products, for 2 hours at 37° C. in the presence of 5% CO2. The molecules are diluted in dimethyl sulphoxide (DMSO Sigma #D2650), the final DMSO percentage being 0.1%. The molecules are tested at increasing concentrations in a range that can extend from 10 nM to 1 μM.
After this incubation, the cells are fixed with 4% paraformaldehyde (Sigma #HT501128 4L) for 10 min. The cells are then washed twice with PBS and the nuclei then stained with 2 μg/ml of Hoechst 33342 (Invitrogen #H3570). The 96-well plates are then read with the iCyte image analysis cytometer (Compucyte).
The activity of the product is translated to IC50, obtained from a dose-response curve of various concentrations tested and representing the dose giving 50% specific inhibition (absolute IC50). 2 independent experiments make it possible to calculate the mean of the IC50 values.

[3] abbreviates: Homo sapiens, PC-3, P-AKT-S473, PC3 cells.

As a reminder, the IC50 is the concentration at which inhibition is half-maximal. Take `CC(c1ccccc1)N1c2nc(N3CCOCC3)cc(=O)n2C[C@@]1(C)C(F)(F)F` (single isomer, unassigned) [Example 31, (2S)-2-Methyl-7-(morpholin-4-yl)-1-[(1R or 1S)-1-phenylethyl]-2-(trifluoromethyl)-2,3-dihydroimidazo[1,2-a]pyrimidin-5(1H)-one]: the IC50 in experiment [1] (P-AKT-S473, PC3 cells) was determined as 0.06 µM; in experiment [2] (2 hours), 0.334 µM.
Take `CC(c1ccccc1)N1c2nc(N3CCOCC3)cc(=O)n2C[C@@]1(C)C(F)(F)F` (single isomer, unassigned) [Example 32, (2S)-2-Methyl-7-(morpholin-4-yl)-1-[(1R or 1S)-1-phenylethyl]-2-(trifluoromethyl)-2,3-dihydroimidazo[1,2-a]pyrimidin-5(1H)-one]: the 50% inhibitory concentration (IC50) in experiment [1] (P-AKT-S473, PC3 cells) was 0.022 µM; in experiment [2] (2 hours), more than 1 µM.
Regarding `CC(c1ccccc1F)N1c2nc(N3CCOCC3)cc(=O)n2C[C@@]1(C)C(F)(F)F` (single isomer, unassigned) [Example 36, (2S)-1-[(1R or 1S)-1-(2-Fluorophenyl)ethyl]-2-methyl-7-(morpholin-4-yl)-2-(trifluoromethyl)-2,3-dihydroimidazo[1,2-a]pyrimidin-5(1H)-one], the IC50 in experiment [1] (P-AKT-S473, PC3 cells) worked out at 0.004 µM; in experiment [2] (Homo sapiens, HeLa, 2 h) it was 0.995 µM.
For the compound `CC(c1ccccc1F)N1c2nc(N3CCOCC3)cc(=O)n2C[C@@]1(C)C(F)(F)F` (single isomer, unassigned) [Example 37, (2S)-1-[(1R or 1S)-1-(2-Fluorophenyl)ethyl]-2-methyl-7-(morpholin-4-yl)-2-(trifluoromethyl)-2,3-dihydroimidazo[1,2-a]pyrimidin-5(1H)-one], the IC50 came to 0.019 µM in experiment [1] (P-AKT-S473, PC3 cells) and 0.737 µM in experiment [2] (2 hours).
For `C[C@@]1(C(F)(F)F)Cn2c(nc(N3CCOCC3)c(F)c2=O)N1Cc1ccccc1` [Example 19, (2S)-1-Benzyl-6-fluoro-2-methyl-7-(morpholin-4-yl)-2-(trifluoromethyl)-2,3-dihydroimidazo[1,2-a]pyrimidin-5(1H)-one], the IC50 worked out at 0.026 µM in experiment [1] (setting [3]) and 0.425 µM in experiment [2] (Homo sapiens, HeLa, 2 h).
For `C[C@@]1(C(F)(F)F)Cn2c(nc(N3CCOCC3)cc2=O)N1Cc1csc2ccc(Cl)cc12` [Example 20, (2S)-1-[(5-Chloro-1-benzothiophen-3-yl)methyl]-2-methyl-7-(morpholin-4-yl)-2-(trifluoromethyl)-2,3-dihydroimidazo[1,2-a]pyrimidin-5(1H)-one], in that order: 0.018 µM and 0.703 µM.
Consider `C[C@@]1(C(F)(F)F)Cn2c(nc(N3CCOCC3)cc2=O)N1C(=O)c1ccccc1` [Example 21, (2S)-2-Methyl-7-(morpholin-4-yl)-1-(phenylcarbonyl)-2-(trifluoromethyl)-2,3-dihydroimidazo[1,2-a]pyrimidin-5(1H)-one], for which the IC50 in experiment [1] (setting [3]) is 0.007 µM; in experiment [2] (Homo sapiens, HeLa, 2 h), more than 1 µM.
The matching figures for `C[C@@]1(C(F)(F)F)Cn2c(nc(N3CCOCC3)cc2=O)N1Cc1ccc(F)c(Br)c1` [Example 24, (2S)-1-(3-Bromo-4-fluorobenzyl)-2-methyl-7-(morpholin-4-yl)-2-(trifluoromethyl)-2,3-dihydroimidazo[1,2-a]pyrimidin-5(1H)-one]: 0.013 µM and 0.314 µM.
For `C[C@@]1(C(F)(F)F)Cn2c(nc(N3CCOCC3)cc2=O)N1Cc1cccc(F)c1F` [Example 25, (2S)-1-(2,3-Difluorobenzyl)-2-methyl-7-(morpholin-4-yl)-2-(trifluoromethyl)-2,3-dihydroimidazo[1,2-a]pyrimidin-5(1H)-one], in that order: 0.028 µM and 0.621 µM.
The matching figures for `C[C@@]1(C(F)(F)F)Cn2c(nc(N3CCOCC3)cc2=O)N1Cc1nc2ccccc2o1` [Example 30, (2S)-1-(1,3-Benzoxazol-2-ylmethyl)-2-methyl-7-(morpholin-4-yl)-2-(trifluoromethyl)-2,3-dihydroimidazo[1,2-a]pyrimidin-5(1H)-one]: 0.089 µM and more than 1 µM.
As for `C[C@@]1(C(F)(F)F)Cn2c(nc(N3CCOCC3)cc2=O)N1Cc1c[nH]c2ccccc12` [Example 33, (2S)-1-(1H-indol-3-ylmethyl)-2-methyl-7-(morpholin-4-yl)-2-(trifluoromethyl)-2,3-dihydroimidazo[1,2-a]pyrimidin-5(1H)-one], the IC50 in experiment [1] (setting [3]) turned out to be 0.042 µM; in experiment [2] (Homo sapiens, HeLa, 2 h) it was 0.461 µM.
As for `Cc1ccccc1C(=O)N1c2nc(N3CCOCC3)cc(=O)n2C[C@@]1(C)C(F)(F)F` [Example 35, (2S)-2-Methyl-1-[(2-methylphenyl)carbonyl]-7-(morpholin-4-yl)-2-(trifluoromethyl)-2,3-dihydroimidazo[1,2-a]pyrimidin-5(1H)-one], the IC50 in experiment [1] (setting [3]) is 0.032 µM; in experiment [2] (Homo sapiens, HeLa, 2 h), more than 1 µM.
